Test results as given in publication PMC11243149, “Assessing the Effects of Thiazole-Carboxamide Derivatives on the Biophysical Properties of AMPA Receptor Complexes as a Potential Neuroprotective Agent” (Molecules, 2024).
Like-named read-outs stand apart in the source and are kept apart here.

How the values were obtained:
Type in all cases: cell-based
GluA2/3 = target: T1, GluA2/3 (Homo sapiens, UniProt P42262+P42263); assay: Whole-cell patch-clamp recordings of heteromeric GluA2/3 AMPAR in transfected HEK293T cells; conditions: for Amplitude (glutamate plus TC compound): 10 mM glutamate + TC compound (12 µM optimal concentration), HEK293T, -60 mV, pH 7.4, 22 °C, mean ± SEM; for Amplitude (glutamate plus TC compound) / Amplitude, applying glutamate alone after TC compound: n = 10; for Amplitude, applying glutamate alone after TC compound: 10 mM glutamate alone after 20 s wash following the TC compound; for A/AI: ratio of current with glutamate alone (A) to inhibited current after TC compound (AI); for t deact: weighted tau of deactivation, 10 mM glutamate for 1 ms, glutamate alone 2.6±0.3; for t deact / t des: with TC compound; for t des: weighted tau of desensitization, 10 mM glutamate 500 ms, glutamate alone 2.7±0.2
T1 construct: expressed in transfected cells; host or cells: HEK293T
T1 sequence (P42262 25-883 isoform P42262-2 limits assumed): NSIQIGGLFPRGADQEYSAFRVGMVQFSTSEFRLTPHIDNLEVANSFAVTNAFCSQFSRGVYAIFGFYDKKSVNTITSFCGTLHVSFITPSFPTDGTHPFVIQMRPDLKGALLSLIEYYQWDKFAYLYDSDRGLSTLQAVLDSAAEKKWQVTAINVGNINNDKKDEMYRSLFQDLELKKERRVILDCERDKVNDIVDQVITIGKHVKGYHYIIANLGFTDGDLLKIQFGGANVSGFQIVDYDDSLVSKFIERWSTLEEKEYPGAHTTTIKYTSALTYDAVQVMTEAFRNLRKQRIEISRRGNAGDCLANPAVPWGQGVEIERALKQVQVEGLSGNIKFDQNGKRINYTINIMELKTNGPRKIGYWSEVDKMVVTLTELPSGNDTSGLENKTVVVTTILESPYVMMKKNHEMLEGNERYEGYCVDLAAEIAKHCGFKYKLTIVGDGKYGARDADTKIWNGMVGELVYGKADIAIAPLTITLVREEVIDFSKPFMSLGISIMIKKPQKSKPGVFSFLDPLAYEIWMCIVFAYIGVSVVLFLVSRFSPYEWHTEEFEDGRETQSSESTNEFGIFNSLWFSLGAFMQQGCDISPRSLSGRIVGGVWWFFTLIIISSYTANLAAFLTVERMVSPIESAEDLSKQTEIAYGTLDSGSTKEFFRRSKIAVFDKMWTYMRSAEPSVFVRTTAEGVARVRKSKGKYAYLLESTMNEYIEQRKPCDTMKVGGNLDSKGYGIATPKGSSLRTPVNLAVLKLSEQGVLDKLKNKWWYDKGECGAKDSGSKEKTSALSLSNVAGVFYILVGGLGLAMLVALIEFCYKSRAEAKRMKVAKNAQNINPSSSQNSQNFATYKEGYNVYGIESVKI
T1 sequence (P42263 29-894 isoform P42263-2 limits assumed): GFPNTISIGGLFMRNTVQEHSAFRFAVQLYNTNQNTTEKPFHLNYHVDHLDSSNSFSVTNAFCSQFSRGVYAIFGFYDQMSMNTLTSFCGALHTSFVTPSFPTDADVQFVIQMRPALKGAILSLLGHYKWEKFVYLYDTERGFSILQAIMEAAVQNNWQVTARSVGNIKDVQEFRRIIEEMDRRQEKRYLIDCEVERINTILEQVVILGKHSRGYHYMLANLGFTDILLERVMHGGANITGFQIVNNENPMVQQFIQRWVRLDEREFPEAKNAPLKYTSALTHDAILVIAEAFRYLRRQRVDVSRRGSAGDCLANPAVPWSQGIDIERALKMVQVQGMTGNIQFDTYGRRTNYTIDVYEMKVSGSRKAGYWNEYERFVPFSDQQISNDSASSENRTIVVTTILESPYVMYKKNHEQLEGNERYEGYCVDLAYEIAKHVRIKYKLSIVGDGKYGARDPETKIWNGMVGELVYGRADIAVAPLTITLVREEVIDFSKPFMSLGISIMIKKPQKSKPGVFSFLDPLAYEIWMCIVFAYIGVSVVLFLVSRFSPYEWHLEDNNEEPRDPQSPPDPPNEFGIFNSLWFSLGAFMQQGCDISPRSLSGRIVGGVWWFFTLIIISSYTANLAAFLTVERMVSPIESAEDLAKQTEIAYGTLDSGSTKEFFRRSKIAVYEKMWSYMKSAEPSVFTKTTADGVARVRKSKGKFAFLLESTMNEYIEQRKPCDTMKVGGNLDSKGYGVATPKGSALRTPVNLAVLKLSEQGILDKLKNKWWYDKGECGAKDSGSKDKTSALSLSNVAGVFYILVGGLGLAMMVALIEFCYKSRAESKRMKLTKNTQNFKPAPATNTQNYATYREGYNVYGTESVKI
Procedure: (§1) The effect of five TC compounds on whole-cell currents of four AMPAR subunits (GluA1, GluA1/2, GluA2, and GluA2/3) was investigated using transfected HEK293T cells. Each compound was applied separately to each subunit, with experiments conducted on 8–10 cells per condition to ensure reproducibility. […] At a glutamate concentration of 10 mM and a 500 ms protocol, approximately 95% of AMPAR channels were open. The A/AI ratio was calculated to compare the results, where A represents normalized current readings and AI indicates the inhibited current following TC compound exposure. […] Following closely, TC-1 inhibited the tested subunits by 5-fold.
(§2) The IC50 values were examined using GraphPad Prism software 9.5.0.730 (x64) (Table S6), which confirmed these findings. The IC50 values of TC substances were calculated by standardizing the peak current amplitudes using data obtained from 8–10 cells. Following a 500 ms exposure to the compounds, the cells were rinsed with glutamate for 20 s. Next, a solution containing just glutamate at a concentration of 10 mM was administered, and the resulting immediate induced electrical current was measured and documented (Figure 3).
(§3) In addition, an evaluation was conducted on the deactivation rates (τw deact) of all the examined chemicals to investigate their impact on the kinetics of deactivation. The chemicals were assessed for their effect on the deactivation kinetics of AMPAR subunits by briefly administering 10 mM glutamate for 1 ms to begin currents. This experimental setup allowed for the observation of τw deact under controlled conditions. […] TC-5 induced an approximately 2-fold increase in τw deact across all four tested subunits. […] These findings highlight the differential impact of TC compounds on deactivation kinetics across AMPAR subunits, shedding light on their potential neuroprotective mechanisms.
(§4) The flip isoform was uniformly employed across all AMPAR subunits in this study. These subunits were subcloned into the pRK vector and expressed in Human Embryonic kidney cells sourced (Sigma, München, Germany). HEK293T cells were grown in Dulbecco Modified Eagle Medium (DMEM) (Sigma, München, Germany) containing 10% FBS (fetal bovine serum), 0.1 mg/mL streptomycin, and 1 mM sodium pyruvate (Biological Industries; Beit-Haemek, Israel). HEK293T cells were incubated at 37 °C and 5% CO2 was supplemented to the medium. It was subcultured twice a week until cells reached pass #20. The transfection reagent used was either jetPRIME (Polyplus: New York, NY, USA) or Lipofectamine 2000 (Invitrogen; San Diego, CA, USA). Cells were kept for 36 h. after transfection in 12-well plates. Then, they were replated on coverslips coated with Laminin (1 mg/mL; Sigma, Germany) for electrophysiology recordings. Cells were then seeded in Petri dishes in DMEM supplemented with 10% fetal calf serum and antibiotics and maintained in a humidified incubator at 37 °C and 5% CO2. Highly fluorescent cells were identified and selected for recording post-transfection.
(§5) HEK293T cells were recorded for 36–48 h, at a temperature of 22 °C, with a membrane potential of −60 mV. HEK293T cells were recorded 36–48 h after transfection using IPA (Integrated Patch Amplifier) via the […], at a temperature of 22 °C, with a membrane potential of −60 mV. SutterPatch Software v. 1.1.1 (Sutter Instruments, Novato, CA, USA) was used to digitize membrane currents for a short period. The sampling frequency was set to 10 kHz, and the low-pass filter was set to 2 kHz. Borosilicate glass was used to fabricate the patch electrodes with a resistance of 2–4 MΩ. The extracellular solution contained the following (values are in mM): 150 NaCl, 2.8 KCl, 0.5 MgCl2, 2 CaCl2, and 10 HEPES, adjusted to pH 7.4 with NaOH. The pipette solution contained the following (values are in mM): 110 CsF, 30 CsCl, 4 NaCl, 0.5 CaCl2, 10 […], and 10 HEPES, adjusted to pH 7.2 with CsOH. […]

[1] = tested on: AMPAR subunits (GluA1, GluA1/2, GluA2, and GluA2/3); assay: Whole-cell patch-clamp recordings, statements over all tested AMPAR subunits; conditions: for reduction in τw des: across all examined subunits; for increase in τw deact / decrease in AMPAR subunit activity (inhibition of the whole-cell current): all tested subunits; for increase in τw deact: 10 mM glutamate for 1 ms; for decrease in AMPAR subunit activity (inhibition of the whole-cell current): 10 mM glutamate, 500 ms protocol
Procedure: as §1
A thorough investigation was performed to assess the neuroprotective potential of the TC compounds. The influence of the five TC compounds on the desensitization traces is seen in Figure 4, namely in panels b, d, f, and h. TC-2 caused a substantial reduction in τw des in all receptor subunits, with decreases ranging from 2 to 3 times.
as §3, §4
as §5, with “CsOH. Using double barrel glass (theta tube), glutamate and the solutions of choice were rapidly administered, and the theta tube was mounted on a high-speed piezo solution switcher (Automate Scientific, Berkeley, CA, USA).” for “CsOH.”

GluA1/2 = target: T2, GluA1/2 (Homo sapiens, UniProt P42261+P42262); assay: Whole-cell patch-clamp recordings of heteromeric GluA1/2 AMPAR in transfected HEK293T cells; conditions: for Amplitude (glutamate plus TC compound): 10 mM glutamate + TC compound (12 µM optimal concentration), HEK293T, -60 mV, pH 7.4, 22 °C, mean ± SEM; for Amplitude (glutamate plus TC compound) / Amplitude, applying glutamate alone after TC compound: n = 10; for Amplitude, applying glutamate alone after TC compound: 10 mM glutamate alone after 20 s wash following the TC compound; for A/AI: ratio of current with glutamate alone (A) to inhibited current after TC compound (AI); for t deact: weighted tau of deactivation, 10 mM glutamate for 1 ms, glutamate alone 2.5±0.3; for t deact / t des: with TC compound; for t des: weighted tau of desensitization, 10 mM glutamate 500 ms, glutamate alone 5.2±0.5
T2 construct: expressed in transfected cells; host or cells: HEK293T
T2 sequence (P42261 19-906 isoform P42261-2 limits assumed): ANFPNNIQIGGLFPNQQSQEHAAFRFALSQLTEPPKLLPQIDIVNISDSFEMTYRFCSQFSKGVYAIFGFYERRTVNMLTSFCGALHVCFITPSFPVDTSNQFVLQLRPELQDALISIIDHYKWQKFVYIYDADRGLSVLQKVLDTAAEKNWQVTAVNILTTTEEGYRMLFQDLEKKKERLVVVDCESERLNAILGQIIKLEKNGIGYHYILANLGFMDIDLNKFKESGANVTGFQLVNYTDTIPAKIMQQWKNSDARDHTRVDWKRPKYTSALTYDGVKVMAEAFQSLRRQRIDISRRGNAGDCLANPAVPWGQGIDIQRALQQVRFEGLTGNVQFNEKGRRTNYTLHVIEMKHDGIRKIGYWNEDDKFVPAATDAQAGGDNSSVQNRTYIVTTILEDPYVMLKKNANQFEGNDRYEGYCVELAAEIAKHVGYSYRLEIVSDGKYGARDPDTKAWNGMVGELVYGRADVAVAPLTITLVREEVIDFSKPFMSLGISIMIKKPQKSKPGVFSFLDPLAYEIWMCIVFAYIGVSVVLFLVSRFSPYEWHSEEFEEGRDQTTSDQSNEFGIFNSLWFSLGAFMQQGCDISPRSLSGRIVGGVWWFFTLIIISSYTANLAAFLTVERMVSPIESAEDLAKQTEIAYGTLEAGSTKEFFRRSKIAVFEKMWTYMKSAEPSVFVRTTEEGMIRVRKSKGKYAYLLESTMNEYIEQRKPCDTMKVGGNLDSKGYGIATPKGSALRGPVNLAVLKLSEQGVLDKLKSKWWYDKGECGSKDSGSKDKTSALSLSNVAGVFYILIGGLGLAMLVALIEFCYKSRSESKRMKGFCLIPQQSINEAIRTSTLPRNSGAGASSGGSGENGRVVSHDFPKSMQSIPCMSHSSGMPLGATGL
T2 sequence (P42262 25-883 isoform P42262-2 limits assumed): as the sequence (P42262 25-883 isoform P42262-2 limits assumed) above
Procedure: as §1, §2, §3, §4, §5

GluA2 = target: T3, GluA2 (Homo sapiens, UniProt P42262); assay: Whole-cell patch-clamp recordings of homomeric GluA2 AMPAR in transfected HEK293T cells; conditions: for Amplitude (glutamate plus TC compound): 10 mM glutamate + TC compound (12 µM optimal concentration), HEK293T, -60 mV, pH 7.4, 22 °C, mean ± SEM; for Amplitude (glutamate plus TC compound) / Amplitude, applying glutamate alone after TC compound: n = 10; for Amplitude, applying glutamate alone after TC compound: 10 mM glutamate alone after 20 s wash following the TC compound; for A/AI: ratio of current with glutamate alone (A) to inhibited current after TC compound (AI); for t deact: weighted tau of deactivation, 10 mM glutamate for 1 ms, glutamate alone 2.3±0.1; for t deact / t des: with TC compound; for t des: weighted tau of desensitization, 10 mM glutamate 500 ms, glutamate alone 2.6±0.1
T3 construct: expressed in transfected cells; host or cells: HEK293T
T3 sequence (P42262 25-883 isoform P42262-2 limits assumed, species assumed): as the sequence (P42262 25-883 isoform P42262-2 limits assumed) above
Procedure: as §1, §2, §3, §4, §5

[2] = Table S6, peak current amplitudes, 8-10 cells, GraphPad Prism fit, read-out: IC50
[3] = Table S6, read-out: Log IC50 (converted)

Amplitude (glutamate plus TC compound) (GluA2/3)	Amplitude, applying glutamate alone after TC compound (GluA2/3)	IC50 (GluA2/3; [2])	IC50 (GluA2/3; [3])	A/AI (GluA2/3)	t deact (GluA2/3)	Amplitude (glutamate plus TC compound) (GluA1/2)	Amplitude, applying glutamate alone after TC compound (GluA1/2)	IC50 (GluA1/2; [2])	IC50 (GluA1/2; [3])	A/AI (GluA1/2)	t deact (GluA1/2)	Amplitude (glutamate plus TC compound) (GluA2)	Amplitude, applying glutamate alone after TC compound (GluA2)	IC50 (GluA2; [3])	Structure (SMILES)	t des (GluA2/3)	reduction in τw des [1]	increase in τw deact [1]	decrease in AMPAR subunit activity (inhibition of the whole-cell current) [1]	t des (GluA1/2)	further results
183±36 pA	460±95 pA	5.64 µM	5.62 µM	2.59±0.05	3.3 ± 0.3 ms	221±26 pA	609±77 pA	5.78 µM	5.75 µM	2.86±0.02	3.2 ± 0.4 ms	393±43 pA	1110±101 pA	5.62 µM	COc1ccc(-c2nc(C(=O)Nc3ccc(C(C)(C)C)cc3)cs2)cc1 [TC-4]	1.9 ± 0.2 ms	little effect	weaker effects	~2.5 fold	4.4 ± 0.3 ms	IC50 (GluA2; [2]): 5.6 µM; A/AI (GluA2): 2.91±0.07; t deact (GluA2): 3.4 ± 0.2 ms; t des (GluA2): 1.8 ± 0.1 ms
159±25 pA	456±76 pA	5.53 µM	5.5 µM	3.06±0.07	3.4 ± 0.4 ms	197±24 pA	565±72 pA	5.64 µM	5.62 µM	3.09±0.02	3.3 ± 0.3 ms	363±37 pA	1078±112 pA	5.5 µM	COc1ccc(-c2nc(C(=O)Nc3ccccc3)cs2)cc1 [TC-3]	1.8 ± 0.2 ms	little effect	weaker effects	~3 fold	4.2 ± 0.3 ms	IC50 (GluA2; [2]): 5.5 µM; A/AI (GluA2): 3.17±0.02; t deact (GluA2): 3.5 ± 0.3 ms; t des (GluA2): 1.7 ± 0.1 ms
102±13 pA	491±61 pA	3.38 µM	3.39 µM	4.95±0.19	5.6 ± 0.4 ms	126±12 pA	604±62 pA	3.36 µM	3.39 µM	4.98±0.06	5.8 ± 0.4 ms	233±20 pA	1137±97 pA	3.31 µM	COc1ccc(-c2nc(C(=O)Nc3ccc(OC)c(OC)c3)cs2)cc1 [TC-1]	1.2 ± 0.3 ms	roughly twofold	around 2 fold	5 fold	3.9 ± 0.4 ms	decrease in τw des (GluA1/2): around 1.3 fold; A/AI (GluA2): 5.03±0.04; IC50 (GluA2; read-out: IC50): 3.3 µM; t deact (GluA2): 5.9 ± 0.2 ms; t des (GluA2): 1.1 ± 0.1 ms
